Measurements published in PubChem BioAssay AID720620 (The Scripps Research Institute Molecular Screening Center, 2013).
The source made the active and inactive calls.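 The calls were made as follows: active = at least 50% inhibition of the human mitochondrial methionine-charging enzyme at 10 µM; inactive = under 50% inhibition at 10 µM.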

Biological target: Methionine--tRNA ligase, mitochondrial (Homo sapiens) (UniProt Q96GW9)
Test: inhibition of human MARS2 tRNA charging – biochemical, radioactivity, [3H]methionine, two concentrations, counter-screen for T. brucei MetRS inhibitor project, late-stage follow-up (AID 720620)
Details: recombinant human mitochondrial MetRS, [3H]Met-tRNA charging, 60 min, stronger effect = higher value

Chain of Methionine--tRNA ligase, mitochondrial (Homo sapiens) (Q96GW9 whole entry, looked up): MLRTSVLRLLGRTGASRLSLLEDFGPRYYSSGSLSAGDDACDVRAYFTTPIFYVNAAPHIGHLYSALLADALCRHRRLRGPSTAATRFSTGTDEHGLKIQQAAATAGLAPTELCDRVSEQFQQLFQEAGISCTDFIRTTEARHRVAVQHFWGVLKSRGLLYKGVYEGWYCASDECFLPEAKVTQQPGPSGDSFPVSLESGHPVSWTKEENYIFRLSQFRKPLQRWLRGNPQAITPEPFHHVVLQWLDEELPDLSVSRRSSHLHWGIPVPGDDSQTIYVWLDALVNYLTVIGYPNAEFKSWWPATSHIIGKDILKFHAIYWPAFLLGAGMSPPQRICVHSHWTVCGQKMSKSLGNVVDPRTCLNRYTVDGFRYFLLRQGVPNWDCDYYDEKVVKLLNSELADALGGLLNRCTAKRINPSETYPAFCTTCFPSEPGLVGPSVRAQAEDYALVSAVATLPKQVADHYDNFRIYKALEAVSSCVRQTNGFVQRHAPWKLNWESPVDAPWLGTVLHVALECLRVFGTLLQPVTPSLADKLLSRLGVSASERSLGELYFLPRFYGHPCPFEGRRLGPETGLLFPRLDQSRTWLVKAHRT

Row | SMILES | inhibition (at 10 µM) | inhibition (inhibition, at 1 µM)
1 | O=C1CC(N(CCc2ccccc2)C(=S)Nc2ccccc2)C(=O)N1c1ccc(Br)cc1 (stereo not drawn) | 25.6% (inactive) | -25.5%
2 | COc1ccc2[nH]c3nc(SCC(=O)Nc4ccc5c(c4)OCO5)nnc3c2c1 | 24.5% (inactive) | 14.3%
3 | CC(=O)c1c[nH]c(C(=O)NCc2cccc(C(F)(F)F)c2)c1 | 43.8% (inactive) | -7.99%
4 | O=C(Cn1cc(C(=O)C(=O)N2CCOCC2)c2ccccc21)Nc1cccc(C(F)(F)F)c1 | -6.56% (inactive) | -22.4%
5 | CCCCCCCCCC1NC(C(=O)O)Cc2c1[nH]c1ccccc21 (stereo not drawn) | 9.9% (inactive) | -2.41%
6 | COc1ccccc1-n1c(SCC(=O)Nc2ccc(Cl)cc2)nc(O)c(Cc2ccccc2)c1=O | -19.7% (inactive) | -31.6%
7 | O=C(CN1CCSC1=NCc1ccccc1)c1ccc(Cl)c(Cl)c1 | -25.5% (inactive) | -25.1%
8 | Clc1ccc(-c2nnc(SCc3nc4ccccc4[nH]3)o2)c(Cl)c1 | 41.9% (inactive) | -3.17%
9 | O=C(NCCc1nc2ccccc2[nH]1)c1ccc(Cl)c([N+](=O)[O-])c1 | 25.5% (inactive) | 2.97%
10 | Clc1ccc(OCCSCc2nc3ccccc3[nH]2)cc1 | -5.52% (inactive) | -20%
11 | O=C(NCc1nc2ccccc2[nH]1)C1=C[C@@H](c2ccccc2)C[C@@H](OCc2ccc(CO)cc2)O1 | 15.8% (inactive) | -16.8%
12 | O=C(NCc1nc2ccccc2[nH]1)C1=C[C@@H](c2ccc3c(c2)OCO3)C[C@@H](OCCCCO)O1 | -0.58% (inactive) | -3.63%
13 | O=C(C[C@H]1C(=O)N(Cc2ccccc2)C[C@@H]1c1ccc(Br)cc1)Nc1ccc(Br)cc1 | -8.54% (inactive) | -13%
14 | O=C1CC(SCc2nc3ccccc3[nH]2)C(=O)N1c1cccc(Cl)c1 (stereo not drawn) | -0.68% (inactive) | -4.5%
15 | O=C(NNC(=O)c1ccc(-n2cncn2)c([N+](=O)[O-])c1)c1ccc(Cl)cc1 | -21.4% (inactive) | -30.3%
16 | COc1ccccc1NS(=O)(=O)c1cccc(NC(=O)Nc2ccccc2)c1 | 19.1% (inactive) | -9.69%
17 | O=C(NCc1nc2ccccc2[nH]1)C1=C[C@H](c2ccccc2)C[C@H](OCc2ccc(CO)cc2)O1 | 12.7% (inactive) | -8.08%
18 | CC(C)(C)[C@@H]1C=C(C(=O)NCc2nc3ccccc3[nH]2)O[C@H](OCc2ccc(CO)cc2)C1 | -5.44% (inactive) | -10.6%
19 | CN(Cc1cc(Cl)cc(Cl)c1)[C@H]1C[C@H]2c3[nH]c4ccccc4c3CCN2C(=O)[C@H]1CO | 80.3% | 14%
20 | Brc1cnc2nc(SCc3nc4ccccc4[nH]3)[nH]c2c1 | -14.2% (inactive) | -21.5%
21 | O=C(Cn1cnc2ccccc21)Nc1cccc([N+](=O)[O-])c1 | -2.2% (inactive) | -15.4%
22 | O=C(CC=NOCc1ccc([N+](=O)[O-])cc1)Nc1ccc(Cl)cc1 | 1.47% (inactive) | -13%
23 | O=C(NCc1nc2ccccc2[nH]1)C1=C[C@H](c2ccc(Br)cc2)C[C@H](OCc2ccc(CO)cc2)O1 | 17.2% (inactive) | 0.59%

Other lines, results leading:

Row | inhibition (at 10 µM) | inhibition (inhibition, at 1 µM) | SMILES
24 | 12.6% (inactive) | 7.99% | O=C(NCc1nc2ccccc2[nH]1)C1=C[C@H](C2CC2)C[C@H](OCc2ccc(CO)cc2)O1
25 | -4.56% (inactive) | -8.53% | CCOC(=O)N1CCC(Nc2c(Nc3ccc(F)cc3)c(=O)c2=O)CC1
26 | -12% (inactive) | -29.7% | COc1ccc(CNC(=O)CSc2nnc3c(n2)[nH]c2ccc(F)cc23)cc1
27 | 2.21% (inactive) | -9.21% | O=C(NCc1nc2ccccc2[nH]1)C1=C[C@H](c2csc3ccccc23)C[C@H](OCCCCO)O1
28 | 4.55% (inactive) | -24.6% | CC(CC(=O)Nc1cccc(Br)c1)=NNC(=O)c1ccc(O)cc1O
29 | -21.5% (inactive) | -35.7% | Cc1ccc(NC(=O)CN(C)C(=O)CCSc2ccc(F)cc2)cc1
30 | 14% (inactive) | -17.1% | CN1CC(=O)N2C(c3cccc([N+](=O)[O-])c3)c3[nH]c4ccccc4c3C[C@H]2C1=O (stereo partly drawn)
31 | 0.31% (inactive) | -6.26% | COc1ccc(OCC(O)CNC(=O)Nc2ccc(Cl)cc2)cc1 (stereo not drawn)
32 | -3.65% (inactive) | -24.2% | CC(C)OCCCN1CC(=O)N2C(c3cccc([N+](=O)[O-])c3)c3[nH]c4ccccc4c3C[C@H]2C1=O (stereo partly drawn)
33 | 4.32% (inactive) | -11.1% | O=C(Nc1ccc(F)c(Cl)c1)C1CC(=O)n2c(nc3ccccc32)N1 (stereo not drawn)
34 | 24.8% (inactive) | -17.7% | C[C@H](O)[C@@H]1C(=O)N2CCc3c([nH]c4ccccc34)[C@@H]2C[C@@H]1N(C)Cc1ccc2c(c1)OCO2
35 | 7.87% (inactive) | -14.1% | CC(=O)c1ccc(N2CCN(C(=O)CCCn3c(=O)[nH]c4ccc(Br)cc4c3=O)CC2)cc1
36 | -11.2% (inactive) | -17.1% | O=C(NNC(=O)c1cc(-c2ccc(Cl)c(Cl)c2)nc2ccccc12)Nc1ccccc1
37 | 16.7% (inactive) | -11.6% | O=C(NCc1nc2ccccc2[nH]1)C1=C[C@@H](c2ccc(Br)cc2)C[C@@H](OCc2ccc(CO)cc2)O1
38 | 4.46% (inactive) | -17.4% | O=C1[C@@H]2Cc3c([nH]c4ccccc34)C(c3cccc([N+](=O)[O-])c3)N2C(=O)CN1CCCO (stereo partly drawn)
39 | -6.53% (inactive) | -4.89% | CCO[C@@H]1OC(C(=O)NCc2nc3ccccc3[nH]2)=C[C@H](c2ccc(Br)cc2)[C@H]1CCCO

Row | inhibition (at 10 µM) | inhibition (inhibition, at 1 µM) | SMILES
40 | 40.4% (inactive) | 49.7% | COc1cccc(NC(=O)CSc2nnc3c(n2)[nH]c2ccc(C)cc23)c1
41 | -14.1% (inactive) | -28.9% | O=C(CCC(=O)Nc1cccc([N+](=O)[O-])c1)NN=Cc1cccs1
42 | 5.87% (inactive) | -11.4% | O=C(NCc1nc2ccccc2[nH]1)C1=C[C@@H](C2CC2)C[C@@H](OCc2ccc(CO)cc2)O1
43 | 31.4% (inactive) | -0.2% | Oc1c(Cl)cc(Cl)cc1CNc1nc2ccccc2[nH]1
44 | 4.89% (inactive) | -19.7% | O=C(N/C(=C\c1cccnc1)c1nc2ccccc2[nH]1)c1cccc(Br)c1
45 | 29% (inactive) | -9.46% | O=C(NCc1nc2ccccc2[nH]1)C1=C[C@@H](c2ccc(Br)cc2)C[C@@H](OCCCCO)O1
46 | -19.1% (inactive) | -36.7% | CN(CC(=O)Nc1ccc(Cl)cc1)C(=O)c1ccc(-n2cncn2)c([N+](=O)[O-])c1
47 | 6.67% (inactive) | -15% | O=C(NCc1nc2ccccc2[nH]1)C1=C[C@@H](c2csc3ccccc23)C[C@@H](OCCCCO)O1
48 | 10.3% (inactive) | -20.5% | CC(C)(C)[C@H]1C=C(C(=O)NCc2nc3ccccc3[nH]2)O[C@@H](OCc2ccc(CO)cc2)C1
49 | 10.2% (inactive) | -10.7% | O=C(NCc1nc2ccccc2[nH]1)C1=C[C@H](c2ccc3c(c2)OCO3)C[C@H](OCCCCO)O1
50 | -2.4% (inactive) | -6.37% | O=C(NCc1nc2ccccc2[nH]1)C1=C[C@H](c2ccc(Br)cc2)C[C@H](OCCCCO)O1
51 | 11.7% (inactive) | -15% | CCO[C@H]1OC(C(=O)NCc2nc3ccccc3[nH]2)=C[C@@H](c2ccc(Br)cc2)[C@@H]1CCCO
52 | -6.71% (inactive) | -22.4% | O=C(CC=NOCc1ccc([N+](=O)[O-])cc1)Nc1ccc(Br)cc1
53 | -11% (inactive) | -31.2% | Cc1[nH]c2ccc(Br)cc2c(=O)c1CN1CCCCCC1
54 | 9.82% (inactive) | -18.3% | O=C(CC(=O)Nc1cccc(Cl)c1)NN=Cc1ccccc1
